pIC50: −log10 of the molar value. *1 amine or outer side, *2 acyl side, *3 side chain or, on linkers, in order; H or OH if unused. Where a SMILES comes first, the peptide text is derived from it. Bridges are numbered along the chain shown (N, C = ends). Roman numbers before positions name the chains, in order. Side-chain parts run from the residue outwards. [ ]: non-standard residue; d: D form. The star is where a group is joined. ξ: configuration not given here. X27 = C[N+](C)(CCNC(=O)COCCOCCNC(=O)COCCOCCNC(=O)CC[C@H](NC(=O)CCCCCCCCCCCCCCCCCCC(=O)O)C(=O)O)CC(=O)*; X35 = NCCOc1ccc(C[C@H](N[*:1])C(=O)CC(Cc2ccc3ccccc3c2)C(=O)[*:2])cc1; Me3N+CH2CH2(OCH2CH2)4CO = C[N+](C)(C)CCOCCOCCOCCOCCC(=O)*; Me3N+(CH2)2O(CH2)2O(CH2)2CO = C[N+](C)(C)CCOCCOCCC(=O)*; PEG12 = NCCOCCOCCOCCOCCOCCOCCOCCOCCOCCOCCOCCOCCC(=O)O; Trp(7-Me,2,3-dihydro) = Cc1cccc2c1NCC2C[C@H](N)C(=O)O; CH2CH2OCH2CH2OCH2CH2NMe3+ = C[N+](C)(C)CCOCCOCC*; Trp(7-Me) = Cc1cccc2c(C[C@H](N)C(=O)O)c[nH]c12; C20 diacid = O=C(O)CCCCCCCCCCCCCCCCCCC(=O)*; C18 diacid = O=C(O)CCCCCCCCCCCCCCCCC(=O)*; X6 = CN(CC[C@H](N[*:1])C(=O)[*:2])[*:3]; γGlu = O=C(O)[C@H](CCC(=O)[*:2])N[*:1]; 2Nal = N[C@@H](Cc1ccc2ccccc2c1)C(=O)O; AEF = NCCOc1ccc(C[C@H](N)C(=O)O)cc1; ξAEF = NCCOc1ccc(CC(N)C(=O)O)cc1; 3Pal = N[C@@H](Cc1cccnc1)C(=O)O; Lys(Me) = CNCCCC[C@H](N)C(=O)O; NMeK = CN[C@@H](CCCCN)C(=O)O; Pen = CC(C)(S)[C@H](N)C(=O)O; Thp = NC1(C(=O)O)CCOCC1; Abu = CC[C@H](N)C(=O)O; AEEA = NCCOCCOCC(=O)O; Sar = CNCC(=O)O
Tests used:
IL-23R = target: T1, IL-23R (Homo sapiens, UniProt Q5VWK5); assay: IL23R Reporter Assay; type: cell-based; details: HEK293 cells containing IL-23R, IL-12Rβ1 and STAT-inducible firefly luciferase reporter; 10 ng/mL IL-23 (EC90); 5 h
T1 construct: HEK293 cells containing IL-23R, IL-12Rβ1 and a firefly luciferase reporter gene driven by a STAT-inducible promoter (Promega); host or cells: HEK293
T1 sequence (Q5VWK5 24-629): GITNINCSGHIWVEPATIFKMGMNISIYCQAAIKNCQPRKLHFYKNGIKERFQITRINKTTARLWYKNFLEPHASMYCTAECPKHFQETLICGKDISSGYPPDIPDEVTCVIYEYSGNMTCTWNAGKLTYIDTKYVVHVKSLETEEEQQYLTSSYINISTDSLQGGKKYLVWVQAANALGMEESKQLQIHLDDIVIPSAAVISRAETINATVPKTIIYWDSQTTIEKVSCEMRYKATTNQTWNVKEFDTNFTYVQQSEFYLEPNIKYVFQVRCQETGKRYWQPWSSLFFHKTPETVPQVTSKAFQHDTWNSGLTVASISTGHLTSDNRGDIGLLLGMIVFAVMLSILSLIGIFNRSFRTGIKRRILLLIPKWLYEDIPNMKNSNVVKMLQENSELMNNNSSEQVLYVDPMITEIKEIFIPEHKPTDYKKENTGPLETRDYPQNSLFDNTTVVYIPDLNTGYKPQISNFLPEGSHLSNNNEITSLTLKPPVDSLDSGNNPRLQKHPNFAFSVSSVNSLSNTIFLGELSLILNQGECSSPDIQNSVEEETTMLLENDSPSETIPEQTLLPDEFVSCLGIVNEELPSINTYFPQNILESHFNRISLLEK
Method in brief: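 HEK293 cells carrying IL-23R, IL-12Rβ1 and a STAT-driven firefly luciferase reporter (4000 cells/well) received compound, then 10 ng/mL IL-23 solution (EC90), and were incubated for 5 h at 37° C. BioGlo luminescence was normalised to IL-23 alone (0%) and 30 μM control inhibitor (100%). IC50 came from a 4-parameter Hill fit.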

[1] = system: IL-23-stimulated phosphorylated STAT3 in peripheral blood mononuclear cells (PBMCs); assay: PBMC pSTAT3 Assay; type: cell-based; details: PBMCs from healthy donors; 30 min preincubation with peptide; IL-23 5 ng/mL for 30 min; phospho-STAT3 by MSD
Method in brief: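 Healthy-donor PBMCs expanded 4 days on anti-CD3 with 100 ng/mL IL-1β, starved ~4 h in RPMI-0.1% BSA, preincubated 30 min with peptide, then stimulated 30 min at 37 °C with 5 ng/mL IL-23. Lysate pSTAT3 measured by MSD phospho-STAT panel; IC50 derived.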

| Compound | pIC50 (IL-23R) | pIC50 [1] |
| --- | --- | --- |
| CC(=O)NCCCC[C@@H]1NC(=O)[C@H](CC2CNc3c(C)cccc32)NC(=O)[C@H]([C@@H](C)O)NC(=O)[C@H](CC(N)=O)NC(=O)[C@@H](NC(=O)[C@@H](CCCNC(=N)N)NC(C)=O)C(C)(C)SSC(C)(C)[C@@H](C(=O)N[C@@H](Cc2ccc(OCCN)cc2)C(=O)N[C@@H](Cc2ccc3ccccc3c2)C(=O)NCC(=O)N[C@@H](CCCCNC(=O)CCOCCOCCOCCOCCOCCOCCOCCOCCOCCOCCOCCOCCNC(=O)CC[C@H](NC(=O)CCCCCCCCCCCCCCCCC(=O)O)C(=O)O)C(=O)N[C@@H](CC(N)=O)C(=O)N[C@@H](Cc2cccnc2)C(=O)N(C)CC(N)=O)NC1=O (stereo partly drawn) [compound 146, MeCO-r-Pen(3)-N-T-7MeW-K(Ac)-Pen(3)-AEF-2Nal-THP-K(PEG12gEC18OH)-N-3Pya-Sar-CONH2] (Ac-[dR][Pen]NT[Trp(7-Me,2,3-dihydro)]K(Ac)[Pen][AEF][2Nal]GK([PEG12-γGlu-C18 diacid])N[3Pal][Sar]-NH2; disulfide 2-7) | 6.30 to 7.30 | > 9.30 |
| CC(=O)NCCCC[C@@H]1NC(=O)[C@H](Cc2c[nH]c3c(C)cccc23)NC(=O)[C@H]([C@@H](C)O)NC(=O)[C@H](CC(N)=O)NC(=O)[C@@H](NC(C)=O)C(C)(C)SSC(C)(C)[C@@H](C(=O)N[C@@H](Cc2ccc(OCCN)cc2)C(=O)N[C@@H](Cc2ccc3ccccc3c2)C(=O)NC2(C(=O)N[C@@H](CCC(=O)O)C(=O)N[C@@H](CC(N)=O)C(=O)N[C@@H](Cc3cccnc3)C(=O)N(C)CC(=O)OCCOCCOCCNC(=O)COCCOCCNC(=O)CC[C@H](NC(=O)CCCCCCCCCCCCCCCCC(=O)O)C(=O)O)CCOCC2)NC1=O [compound 147, MeCO-Pen(3)-N-T-7MeW-K(Ac)-Pen(3)-AEF-2Nal-THP-E-N-3Pya-Sar-CO(PEG2PEG2gEC18OH)] | ≤ 6.30 | 8.30 to 9.30 |
| CC(=O)N(C)CCCC[C@@H]1NC(=O)[C@H](Cc2c[nH]c3c(C)cccc23)NC(=O)[C@H]([C@@H](C)O)NC(=O)[C@H](CC(=O)N(C)C)NC(=O)[C@@H](N)C(C)(C)SSC(C)(C)[C@@H](C(=O)N[C@@H](Cc2ccc(OCCOCCOCC[N+](C)(C)C)cc2)C(=O)N[C@@H](Cc2ccc3ccccc3c2)C(=O)NC2(C(=O)N[C@@H](CCCCN(C)C(C)=O)C(=O)N[C@@H](CC(N)=O)C(=O)N[C@@H](Cc3cccnc3)C(=O)N(C)CC(=O)N[C@@H](CCCCNC(=O)COCCOCCNC(=O)COCCOCCNC(=O)CC[C@H](NC(=O)CCCCCCCCCCCCCCCCC(=O)O)C(=O)O)C(=O)N(C)C)CCOCC2)NC1=O [compound 148, cPEG3aCO-Pen(3)-N(N(Me)2)-T-7MeW-K(NMeAc)-Pen(3)-APEC3F-2Nal-THP-K(NMeAc)-N-3Pya-Sar-K(PEG2PEG2gEC18OH)-CON(Me)2] (H-[Pen]D(NMe2)T[Trp(7-Me)][Lys(Me)](Ac)[Pen]Y(CH2CH2OCH2CH2OCH2CH2NMe3+)[2Nal][Thp][Lys(Me)](Ac)N[3Pal][Sar]K([AEEA-AEEA-γGlu-C18 diacid])-NMe2; disulfide 1-6) | 6.30 to 7.30 | > 9.30 |
| CC(=O)NCCCC[C@@H]1NC(=O)[C@H](Cc2c[nH]c3c(C)cccc23)NC(=O)[C@H]([C@@H](C)O)NC(=O)[C@H](CC(N)=O)NC(=O)[C@@H](NC(C)=O)C(C)(C)SSC(C)(C)[C@@H](C(=O)N[C@@H](Cc2ccc(OCCN)cc2)C(=O)CC(Cc2ccc3ccccc3c2)C(=O)NC2(C(=O)N[C@@H](CCC(=O)O)C(=O)N[C@@H](CC(N)=O)C(=O)N[C@@H](Cc3cccnc3)C(=O)N(C)CC(=O)N[C@@H](CCCCNC(=O)COCCOCCNC(=O)COCCOCCNC(=O)CC[C@H](NC(=O)CCCCCCCCCCCCCCCCC(=O)O)C(=O)O)C(=O)N(C)C)CCOCC2)NC1=O (stereo partly drawn) [compound 149, MeCO-Pen(3)-N-T-7MeW-K(Ac)-Pen(3)-AEF-2Nal-THP-E-N-3Pya-Sar-K(PEG2PEG2gEC18OH)-CON(Me)2] (I: Ac-[Pen]NT[Trp(7-Me)]K(Ac)[Pen] / II: [Thp]EN[3Pal][Sar]K([AEEA-AEEA-γGlu-C18 diacid])-NMe2; disulfide I:1-I:6; linker I:C-II:N via X35) | ≤ 6.30 | ≤ 8.30 |
| CC(=O)NCCCC[C@@H]1NC(=O)[C@H](Cc2c[nH]c3c(C)cccc23)NC(=O)[C@H]([C@@H](C)O)NC(=O)[C@H](CC(N)=O)NC(=O)[C@@H](NC(=O)O)CCCC[C@@H](C(=O)N[C@@H](Cc2ccc(OCCN)cc2)C(=O)N[C@@H](Cc2ccc3ccccc3c2)C(=O)NC2(C(=O)N[C@@H](CCC(=O)O)C(=O)N[C@@H](CC(N)=O)C(=O)N[C@@H](Cc3cccnc3)C(=O)N(C)CC(=O)C[C@@H](CCCCNC(=O)COCCOCCNC(=O)COCCOCCNC(=O)CC[C@H](NC(=O)CCCCCCCCCCCCCCCC(=O)O)C(=O)O)C(=O)NCCOCCOCC[N+](C)(C)C)CCOCC2)NC1=O [compound 150, MeCO-Pen(3)-N-T-7MeW-K(Ac)-Pen(3)-AEF-2Nal-THP-E-N-3Pya-Sar-K(PEG2PEG2gEC18OH)-CONH(PEG3a)] | ≤ 6.30 | ≤ 8.30 |
| CC(=O)N(C)CCCC[C@@H]1NC(=O)[C@H](Cc2c[nH]c3c(C)cccc23)NC(=O)[C@H]([C@@H](C)O)NC(=O)[C@H](CC(=O)N(C)C)NC(=O)[C@@H](NC(=O)CCOCCOCC[N+](C)(C)C)C(C)(C)SSC(C)(C)[C@@H](C(=O)N[C@@H](Cc2ccc(OCCNC(=O)C[N+](C)(C)CCNC(=O)COCCOCCNC(=O)COCCOCCNC(=O)CC[C@H](NC(=O)CCCCCCCCCCCCCCCCCCC(=O)O)C(=O)O)cc2)C(=O)N[C@@H](Cc2ccc3ccccc3c2)C(=O)NC2(C(=O)N[C@@H](CCCCN(C)C(C)=O)C(=O)N[C@@H](CC(N)=O)C(=O)N[C@@H](Cc3cccnc3)C(=O)N(C)CC(=O)N(C)C)CCOCC2)NC1=O [compound 151, cPEG3aCO-Pen(3)-N(N(Me)2)-T-7MeW-K(NMeAc)-Pen(3)-AEF(SP6PEG2PEG2gEC20OH)-2Nal-THP-K(NMeAc)-N-3Pya-Sar-CON(Me)2] ({Me3N+(CH2)2O(CH2)2O(CH2)2CO}-[Pen]D(NMe2)T[Trp(7-Me)][Lys(Me)](Ac)[Pen][AEF](X27)[2Nal][Thp][Lys(Me)](Ac)N[3Pal][Sar]-NMe2; disulfide 1-6) | > 7.30 | > 9.30 |
| CC[C@@H]1NC(=O)[C@H](Cc2c[nH]c3c(C)cccc23)NC(=O)[C@H]([C@@H](C)O)NC(=O)[C@H](CC(=O)N(C)C)NC(=O)[C@@H](NC(=O)CCOCCOCCOCCOCC[N+](C)(C)C)C(C)(C)SSC(C)(C)[C@@H](C(=O)NC(Cc2ccc(OCCN)cc2)C(=O)N[C@@H](Cc2ccc3ccccc3c2)C(=O)NC2(C(=O)N[C@@H](CCC(=O)O)C(=O)N[C@@H](CC(N)=O)C(=O)N[C@@H](Cc3cccnc3)C(=O)N(C)[C@@H](CCCCNC(=O)COCCOCCNC(=O)COCCOCCNC(=O)CC[C@H](NC(=O)CCCCCCCCCCCCCCCCCCC(=O)O)C(=O)O)C(N)=O)CCOCC2)NC1=O (stereo partly shown) [compound 152, cPEG5aCO-Pen(3)-N(N(Me)2)-T-7MeW-Dab(NMecPEG5A)-Pen(3)-AEF-2Nal-THP-E-N-3Pya-NMeK(PEG2PEG2gEC20OH)-CONH2] ({Me3N+CH2CH2(OCH2CH2)4CO}-[Pen]D(NMe2)T[Trp(7-Me)][Abu][Pen][ξAEF][2Nal][Thp]EN[3Pal][NMeK]([AEEA-AEEA-γGlu-C20 diacid])-NH2; disulfide 1-6) | 6.30 to 7.30 | > 9.30 |
| Cc1cccc2c(C[C@@H]3NC(=O)[C@H]([C@@H](C)O)NC(=O)[C@H](CC(=O)N(C)C)NC(=O)[C@@H](NC(=O)CCOCCOCCOCCOCC[N+](C)(C)C)C(C)(C)SSC(C)(C)[C@@H](C(=O)NC(Cc4ccc(OCCN)cc4)C(=O)N[C@@H](Cc4ccc5ccccc5c4)C(=O)NC4(C(=O)N[C@@H](CCC(=O)O)C(=O)N[C@@H](CC(N)=O)C(=O)N[C@@H](Cc5cccnc5)C(=O)N(C)[C@@H](CCCCNC(=O)COCCOCCNC(=O)COCCOCCNC(=O)CC[C@H](NC(=O)CCCCCCCCCCCCCCCCC(=O)O)C(=O)O)C(N)=O)CCOCC4)NC(=O)[C@H](CCN(C)C(=O)CCOCCOCCOCCOCC[N+](C)(C)C)NC3=O)c[nH]c12 (stereo partly shown) [compound 153, cPEG5aCO-Pen(3)-N(N(Me)2)-T-7MeW-Dab(NMecPEG5a)-Pen(3)-AEF-2Nal-THP-E-N-3Pya-NMeK(PEG2PEG2gEC18OH)-CONH2] ({Me3N+CH2CH2(OCH2CH2)4CO}-[Pen]D(NMe2)T[Trp(7-Me)][X6](Me3N+CH2CH2(OCH2CH2)4CO)[Pen][ξAEF][2Nal][Thp]EN[3Pal][NMeK]([AEEA-AEEA-γGlu-C18 diacid])-NH2; disulfide 1-6) | 6.30 to 7.30 | > 9.30 |
